Assay results: patent US12522587B2, “Cancer treatments targeting cancer stem cells” (Remedy Plan, Inc., priority 2018, dated 2026)

What was measured:
MV-4-11 cells = experiment: Cell viability in MV-4-11 cells (CellTiter Glo2, 4 days); type: cell-based; conditions: Homo sapiens, MV4-11, 96 h
Procedure: Approximately 10,000 MV-4-11 cells per well of a 96-well plate were treated with DMSO (no drug control) or each compound in Table 6 in an 8-point dose response for 4 days. Cell viability was measured using CellTiter Glo2. The IC50 of each compound was determined using CDD Vault.

RS4;11 cells = experiment: Cell viability in RS4;11 cells (CellTiter Glo2, 4 days); type: cell-based; conditions: Homo sapiens, 96 h
Procedure: Approximately 10,000 RS4;11 cells per well of a 96-well plate were treated with DMSO (no drug control) or each compound in Table 6 in an 8-point dose response for 4 days. Cell viability was measured using CellTiter Glo2. The IC50 of each compound was determined using CDD Vault.

AGS cells = experiment: Cell viability in AGS cells (CellTiter Glo2, 8-point dose response, 4 days); type: cell-based, human; conditions: Homo sapiens, AGS, 96 h
Procedure: AGS cells were treated with DMSO (no drug control) or each compound in Table 5 in an 8-point dose response for 4 days. Cell viability was measured using CellTiter Glo2. The IC50 of each compound was determined using CDD Vault.

CCOC(=O)N(C)c1ccc(-c2ccc(C(=O)NCc3cccnc3)cc2)cc1 [Compound I-231, ethyl methyl(4′-((pyridin-3-ylmethyl)carbamoyl)-[1,1′-biphenyl]-4-yl)carbamate]
IC50 (MV-4-11 cells): 0.741 µM
IC50 (RS4;11 cells): 2.92 µM
IC50 (AGS cells): 3.41 µM

CCC(=O)N(C)c1ccc(-c2ccc(C(=O)NCc3cccnc3)cn2)cc1C [Compound I-232, 6-(3-methyl-4-(N-methylpropionamido)phenyl)-N-(pyridin-3-ylmethyl)nicotinamide]
IC50 (MV-4-11 cells): 1.22 µM
IC50 (RS4;11 cells): 0.231 µM
IC50 (AGS cells): 1.28 µM

CCC(=O)N(C)c1ccc(-c2nc(C(=O)NCc3cccnc3)cs2)cc1 [Compound I-241, 2-(4-(N-methylpropionamido)phenyl)-N-(pyridin-3-ylmethyl)thiazole-4-carboxamide]
IC50 (MV-4-11 cells): 3.92 µM
IC50 (RS4;11 cells): 10.5 µM
IC50 (AGS cells): > 30 µM
